Like-named read-outs stand apart in the source and are kept apart here.
Columns and labels:
interleukin 6 (IL-6) = assay: Interleukin 6 induction assay in human whole blood (AlphaLISA); assay type: cell-based; conditions: 20 h at 37° C., 100% set by resiquimod reference at 10 μM, average if more than one assay, read-out: IL-6 Induction EC50 (nM) (normalized 10 μM)
Excerpt: Table A presents biological activity data for compounds disclosed herein. One set of data relates TLR7 agonism activity using the HEK-Blue™ TLR7 reporter assay, as described in Example 11 hereinbelow. Another set of data relates to the induction of interleukin 6 (IL-6), a cytokine that plays an important role in the TLR7 pathway. […] In some instances, more that one TLR7 agonism or IL-6 induction assay was made; if so, the reported value is an average. This example describes a method for assaying interleukin 6 (IL 6) induction by compounds disclosed in this specification. Compounds suspended in DMSO were transferred to individual wells of a Matrix Technologies clear, V-bottom 384-well plate using ECHO acoustic liquid handling technology (25 nL per well). Human whole-blood samples (25 uL) were added to each well using a CyBio FeliX liquid handling instrument and the plate was shaken on a plate shaker for three minutes before incubating the reaction mixtures at 37° C. for 20 h. Basel RPMI 1640 medium (supplemented with L-glutamine) was then added to each well (25 uL per well) prior to liberating plasma from each sample by centrifugation (450×g, 5 min, ambient temperature). Treated plasma samples (3 uL) were subsequently transferred to individual wells of a white, shallow, 384-well ProxiPlate (PerkinElmer) using the FeliX liquid handling instrument and their IL6 levels were measured using AlphaLISA technology as described by the manufacturer (PerkinElmer).

human TLR7 = target: T1, human TLR7 (Homo sapiens, UniProt Q9NYK1); assay: HEK-Blue TLR7 reporter assay (SEAP reporter); assay type: cell-based; conditions: HEK-Blue TLR7 cells, 18 h treatment, SEAP readout; average if more than one assay; read-out: TLR7 Agonism HEK Blue ™ Assay EC50
T1 construct: host or cells: HEK-Blue TLR7 cells (engineered human embryonic kidney cells)
T1 sequence (Q9NYK1 27-1049): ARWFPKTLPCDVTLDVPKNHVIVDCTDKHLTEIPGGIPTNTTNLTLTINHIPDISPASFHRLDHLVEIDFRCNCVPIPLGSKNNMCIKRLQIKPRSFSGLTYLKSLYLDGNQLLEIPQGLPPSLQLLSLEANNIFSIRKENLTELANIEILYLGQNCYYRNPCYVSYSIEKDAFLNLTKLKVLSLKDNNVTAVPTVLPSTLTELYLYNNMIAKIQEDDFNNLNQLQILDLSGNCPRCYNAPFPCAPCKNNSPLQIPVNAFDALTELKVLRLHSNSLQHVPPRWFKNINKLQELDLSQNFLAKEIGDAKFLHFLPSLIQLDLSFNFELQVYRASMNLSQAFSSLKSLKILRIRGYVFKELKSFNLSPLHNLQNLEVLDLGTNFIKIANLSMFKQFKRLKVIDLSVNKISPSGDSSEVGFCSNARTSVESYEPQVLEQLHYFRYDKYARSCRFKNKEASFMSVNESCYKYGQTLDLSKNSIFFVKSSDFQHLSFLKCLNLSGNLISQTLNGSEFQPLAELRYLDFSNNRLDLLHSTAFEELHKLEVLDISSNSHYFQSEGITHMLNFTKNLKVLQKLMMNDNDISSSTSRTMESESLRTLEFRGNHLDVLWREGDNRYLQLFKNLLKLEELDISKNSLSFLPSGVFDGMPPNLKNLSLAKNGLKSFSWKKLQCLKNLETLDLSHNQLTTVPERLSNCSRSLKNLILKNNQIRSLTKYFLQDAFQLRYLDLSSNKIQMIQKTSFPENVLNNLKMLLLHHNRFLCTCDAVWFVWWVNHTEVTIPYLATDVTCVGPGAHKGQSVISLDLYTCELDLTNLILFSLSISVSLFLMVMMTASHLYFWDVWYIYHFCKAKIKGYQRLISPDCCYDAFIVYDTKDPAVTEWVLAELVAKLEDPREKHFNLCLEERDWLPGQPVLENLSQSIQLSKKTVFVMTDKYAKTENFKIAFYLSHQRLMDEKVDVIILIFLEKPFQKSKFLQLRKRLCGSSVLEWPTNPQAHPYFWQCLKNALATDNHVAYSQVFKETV
Excerpt: Table A presents biological activity data for compounds disclosed herein. One set of data relates TLR7 agonism activity using the HEK-Blue™ TLR7 reporter assay, as described in Example 11 hereinbelow. Another set of data relates to the induction of interleukin 6 (IL-6), a cytokine that plays an important role in the TLR7 pathway. […] In some instances, more that one TLR7 agonism or IL-6 induction assay was made; if so, the reported value is an average.
This example describes a method for assaying TLR7 agonist activity of the compounds disclosed in this specification.
HEK-Blue™ TLR7 cells were added to each well of a 384-well tissue-culture plate (15,000 cells per well) and incubated 16-18 h at 37° C., 5% CO2. Compounds (100 nl) were dispensed into wells containing the HEK-Blue™ TLR cells and the treated cells were incubated at 37° C., 5% CO2. After 18 h treatment ten microliters of freshly-prepared Quanti-Blue™ reagent (Invivogen) was added to each well, incubated for 30 min (37° C., 5% CO2) and SEAP levels measured using an Envision plate reader (OD=620 nm). […] EC50's can be determined with software such as Graphpad Prism™.

Row | SMILES | EC50 (human TLR7) | EC50 (interleukin 6 (IL-6); Homo sapiens, 20 h) | EC50 (interleukin 6 (IL-6))
1 | Nc1nc2nc3c1nc(O)n3Cc1ccc(-c3ccc(CNC4CC(O)C4)cc3)c(c1)C/C=C\CCO2 (stereo not shown) [IIb-22] | 0.42 nM | 1.4 nM | 
2 | Nc1nc2nc3c1nc(O)n3Cc1ccc(-c3cc(CNC4CCC4)[nH]n3)c(c1)C/C=C/CCO2 [IIb-14] | 3 nM | 5.3 nM | 
3 | Nc1nc2nc3c1nc(O)n3Cc1ccc(Oc3ccc(CO)cc3)c(c1)C/C=C/CCO2 [IIa-01] | 51 nM |  | 
4 | CC(=O)N1CC(NCc2ccc(-c3ccc4cc3C/C=C\CCOc3nc(N)c5nc(O)n(c5n3)C4)cc2)C1 [IIb-27] | 0.62 nM | 4 nM | 
5 | Nc1nc2nc3c1nc(O)n3Cc1ccc(OC3CCNCC3)c(c1)C/C=C/CCO2 [IIc-01] | 3.7 nM | 5 nM | 
6 | Nc1nc2nc3c1nc(O)n3Cc1ccc(-c3ccc(CNC4CC(O)C4)cc3)c(c1)C/C=C/CCO2 (stereo not shown) [IIb-23] | 0.81 nM | 2 nM | 
7 | Nc1nc2nc3c1nc(O)n3Cc1ccc(Oc3cccc(CNC4CC4)c3)c(c1)C/C=C/CCO2 [IIa-03] | 5.3 nM | 47 nM | 
8 | Nc1nc2nc3c1nc(O)n3Cc1cc(cc(Oc3cccc(CNC4CCC4)c3)c1)C/C=C/CCO2 [IIa-14] | 19 nM | 140 nM | 
9 | Nc1nc2nc3c1nc(O)n3Cc1ccc(-c3cnn(CC(=O)NC4CNC4)c3)c(c1)C/C=C\CCO2 [IIb-39] | 1.6 nM |  | 
10 | COCCNCc1ccc(Oc2ccc3cc2C/C=C/CCOc2nc(N)c4nc(O)n(c4n2)C3)cc1 [IIa-09] | 2.2 nM | 1.9 nM | 
11 | Nc1nc2nc3c1nc(O)n3Cc1ccc(O)c(c1)C/C=C/CCO2 [Compound B3, reference compound] | 68 nM | 400 nM | 
12 | Nc1nc2nc3c1nc(O)n3Cc1ccc(-c3ccc(CNC4CCC4)cc3)c(c1)CCCCCCO2 [IIb-18] | 3.8 nM | 34 nM | 
13 | Nc1nc2nc3c1nc(O)n3Cc1ccc(-c3ccc(CNC4CCC4)cc3)c(c1)OCCCCO2 [IIb-19] | 1 nM | 1.4 nM | 
14 | Nc1nc2nc3c1nc(O)n3Cc1cc(cc(Oc3ccc(CNC4CCC4)cc3)c1)C/C=C/CCO2 [IIa-17] | 8.5 nM | 44 nM | 
15 | Nc1nc2nc3c1nc(O)n3Cc1ccc(-c3ccc(CNC4CCOCC4)cc3)c(c1)C/C=C\CCO2 [IIb-34] | 0.12 nM | 0.76 nM | 
16 | Nc1nc2nc3c1nc(O)n3Cc1cc(cc(Oc3ccc(CNC4CCC4)cc3)c1)CCCCCO2 [IIa-16] | 42 nM | 250 nM | 
17 | Nc1nc2nc3c1nc(O)n3Cc1ccc(Oc3ccc(CNC4CC4)cc3)c(c1)C/C=C/CCO2 [IIa-02] | 4 nM | 5.2 nM | 
18 | Nc1nc2nc3c1nc(O)n3Cc1ccc(-c3cnc(CNC4CCC4)s3)c(c1)C/C=C/CCO2 [IIb-13] | 0.24 nM | 4.3 nM | 
19 | Nc1nc2nc3c1nc(O)n3Cc1ccc(-c3cnn(CCNC4CCC4)c3)c(c1)CCCCCO2 [IIb-08] | 1.7 nM | 6.2 nM | 
20 | Nc1nc2nc3c1nc(O)n3Cc1ccc(Oc3ccc(CNC4CC4)cc3)c(c1)C/C=C\CCO2 [IIa-04] | 0.91 nM | 4.4 nM | 
21 | Nc1nc2nc3c1nc(O)n3Cc1ccc(-c3ccc(CNC4CCC4)cc3)c(c1)C/C=C\CCCO2 [IIb-17] | 0.91 nM | 0.99 nM | 
22 | Nc1nc2nc3c1nc(O)n3Cc1ccc(-c3cnn(C4CNC4)c3)c(c1)C/C=C/CCO2 [IIb-35] | 1.5 nM |  | 
23 | Nc1nc2nc3c1nc(O)n3Cc1ccc(-c3ccc(CNC4CC4)nc3)c(c1)C/C=C/CCO2 [IIb-04] | 0.28 nM | 10 nM | 
24 | Nc1nc2nc3c1nc(O)n3Cc1ccc(Oc3cccc(CNC4CC4)c3)c(c1)CCCCCO2 [IIa-12] | 29 nM | 110 nM | 
25 | Nc1nc2nc3c1nc(O)n3Cc1ccc(-c3ccc(CNC4CCC4)nc3)c(c1)C/C=C/CCO2 [IIb-05] | 0.22 nM | 0.62 nM | 
26 | Nc1nc2nc3c1nc(O)n3Cc1ccc(-c3cnn(C4CCNCC4)c3)c(c1)C/C=C/CCO2 [IIb-36] | 1 nM |  | 
27 | Nc1nc2nc3c1nc(O)n3Cc1ccc(O)c(c1)CCCCCO2 [Compound B5, reference compound] | 580 nM |  | 
28 | CCOCc1nc2c(N)nc3ccccc3c2n1CC(C)(C)O [Resiquimod, resiquimod, reference compound] |  | 350 nM | 

Continued by falling EC50 (human TLR7), values first:

Row | EC50 (human TLR7) | SMILES | EC50 (interleukin 6 (IL-6); Homo sapiens, 20 h) | EC50 (interleukin 6 (IL-6))
29 | 210 nM | Nc1nc2nc3c1nc(O)n3Cc1cccc(c1)C/C=C/CCO2 [Compound B1, reference compound] |  | 
30 | 33 nM | Nc1nc2nc3c1nc(O)n3Cc1cccc(c1)C/C=C\CCO2 [Compound B2, reference compound] |  | 
31 | 25 nM | Nc1nc2nc3c1nc(O)n3Cc1ccc(Oc3ccc(C(=O)NC4CNC4)cc3)c(c1)C/C=C\CCO2 [IIa-19] | 95 nM | 
32 | 17 nM | Nc1nc2nc3c1nc(O)n3Cc1ccc(O)c(c1)C/C=C\CCO2 [Compound B4, reference compound] | 960 nM | 
33 | 14 nM | Nc1nc2nc3c1nc(O)n3Cc1ccc(-c3cc(C(=O)NCCCN4CCCC4=O)[nH]n3)c(c1)C/C=C/CCO2 [IIb-40] | 160 nM | 
34 | 6.8 nM | Nc1nc2nc3c1nc(O)n3Cc1ccc(-c3cccc(C(=O)NC4CNC4)c3)c(c1)C/C=C/CCO2 [IIb-31] | 28 nM | 
35 | 6.6 nM | Nc1nc2nc3c1nc(O)n3Cc1ccc(Oc3ccc(CNC4CC4)cc3)c(c1)CCCCCO2 [IIa-11] | 5.5 nM | 
36 | 4.2 nM | Nc1nc2nc3c1nc(O)n3Cc1ccc(Oc3cccc(CNC4CCC4)c3)c(c1)C/C=C\CCO2 [IIa-07] | 2.9 nM | 
37 | 4.2 nM | Nc1nc2nc3c1nc(O)n3Cc1ccc(-c3ccc(CNC4CCC4)cc3)c(c1)CCCCCO2 [IIb-12] | 13 nM | 
38 | 3.2 nM | Nc1nc2nc3c1nc(O)n3Cc1ccc(-c3cccc(C(=O)NC4CNC4)c3)c(c1)C/C=C\CCO2 [IIb-29] | 24 nM | 
39 | 1.5 nM | Nc1nc2nc3c1nc(O)n3Cc1ccc(-c3ccc(CNC4CC(F)(F)C4)cc3)c(c1)C/C=C/CCO2 [IIb-25] | 0.81 nM | 
40 | 0.68 nM | Nc1nc2nc3c1nc(O)n3Cc1ccc(-c3ccc(CNC4CC(O)C4)cc3)c(c1)C/C=C/CCO2 (stereo not shown) [IIb-24] |  | 2.7 nM
41 | 0.65 nM | Nc1nc2nc3c1nc(O)n3Cc1ccc(-c3cc(CNC4CCC4)[nH]n3)c(c1)C/C=C\CCO2 [IIb-15] | 4.7 nM | 
42 | 0.42 nM | Nc1nc2nc3c1nc(O)n3Cc1ccc(-c3ccc(CNC4COC4)cc3)c(c1)C/C=C\CCO2 [IIb-33] |  | 
43 | 0.35 nM | Nc1nc2nc3c1nc(O)n3Cc1ccc(-c3cnn(CCNC4CC4)c3)c(c1)C/C=C\CCO2 [IIb-02] | 1.3 nM | 
44 | 0.35 nM | Nc1nc2nc3c1nc(O)n3Cc1ccc(-c3cnn(CCNC4CCC4)c3)c(c1)C/C=C\CCO2 [IIb-09] | 2.1 nM | 

— patent US11485741B2, “Macrocyclic toll-like receptor 7 (TLR7) agonists” (BRISTOL-MYERS SQUIBB COMPANY, priority 2018, dated 2022)
